In patent publication US20260206757A1, “METHODS OF CONTROLLING UNDESIRABLE PLANTS WITH PPO HERBICIDES AND COMBINATIONS IN HERBICIDE TOLERANT CROP PLANTS” (BASF AGRO B.V., priority 2022, published 2026):

Experiments:
Type in all cases: in vivo
[1] = test system: Amaranthus palmeri; assay: Field experiment, pre-emergence herbicidal activity on bare ground; details: AMAPA, Preem, Saflufenacil 25, Flumioxazin 71.4 g ai/ha
Experimental: (§1) Trial Objective: Efficacy of Saflufenacil in tank mix with Flumioxazin applied in pre-emergence of the weeds on bare ground.
(§2) On field test sites, natural weed infestation was treated, pre-emergence of the weeds on bare soil or post-emergence of the weeds.
(§3) For the pre-emergence treatment, the active compounds, suspended or emulsified in water, were applied by means of finely distributing nozzles on bare ground.
(§4) In the following experiments, the herbicidal activity for the individual herbicidal compositions (solo and mixture applications) was assessed up to 36 days after treatment (DAT). The assessments for the damage on undesired weeds caused by the chemical compositions was carried out using a scale from 0 to 100%, compared to the untreated control plants. Here, 0 means no damage and 100 means complete destruction of the plants.
(§5) [formula] • where X=effect in percent using herbicide (A) at an application rate a; • Y=effect in percent using herbicide (B) at an application rate b; • E=expected effect (in %) of herbicide (A)+herbicide (B) at application rates a+b.
(§6) The value E corresponds to the effect (plant damage or injury) which is to be expected if the activity of the individual compounds is additive. If the observed effect is higher than the value E calculated according to the Colby equation, a synergistic effect is present.

[2] = test system: Ambrosia trifida; assay: as above; details: AMBTR, Preem, Saflufenacil 50, Flumioxazin 71.4 g ai/ha
Experimental: as §1, §2, §3, §4, §5, §6

[3] = test system: Digitaria sanguinalis; assay: as above; details: DIGSA, Preem, Saflufenacil 25, Flumioxazin 71.4 g ai/ha
Experimental: as §1, §2, §3, §4, §5, §6

[4] = test system: Setaria faberi; assay: as above; details: SETFA, Preem, Saflufenacil 50, Flumioxazin 71.4 g ai/ha
Experimental: as §1, §2, §3, §4, §5, §6

[5] = test system: Eleusine indica; assay: as above; details: ELEIN
Experimental: as §1
(§7) Trial Objective: Efficacy of Saflufenacil in tank mix with Sulfentrazone applied in pre-emergence of the weeds on bare ground.
as §2, §3, §4, §5, §6

[6] = test system: Urochloa texana; assay: as above; details: PANTE
Experimental: as §1, §7, §2, §3, §4, §5, §6

[7] = test system: Abutilon theophrasti; assay: Greenhouse experiment, post emergence herbicidal activity; details: ABUTH
Experimental: (§8) For the post emergence treatment, the plants were first grown to the 2 to 4 leaf stage (GS 12/14). The plants were cultivated due to their individual requirements at 10-25° C. and 20-35° C. The plants were irrigated as required.
(§9) Here, the herbicidal compositions were suspended or emulsified in water as distribution medium and sprayed using finely distributing nozzles. 1% methylated seed oil (MSO) has been added as adjuvant to each of the solo and mixture treatments.
(§10) In the greenhouse experiments, the herbicidal activity for the individual herbicidal compositions (solo and mixture applications) was assessed 20/21 days after treatment (DAT).
(§11) The evaluation for the damage on undesired weeds caused by the chemical compositions was carried out using a scale from 0 to 100%, compared to the untreated control plants. Here, 0 means no damage and 100 means complete destruction of the plants.

[8] = test system: Ambrosia artemisiifolia; assay: as above; details: AMBEL
Experimental: as §8, §9, §10, §11

[9] = test system: Chenopodium album; assay: as above; details: CHEAL
Experimental: as §8, §9, §10, §11

[10] = test system: Convolvulus arvensis; assay: as above; details: CONAR
Experimental: as §8, §9, §10, §11

[11] = test system: Echinochloa crus-galli; assay: as above; details: ECHCG
Experimental: as §8, §9, §10, §11

[12] = test system: Erigeron canadensis; assay: as above; details: ERICA
Experimental: as §8, §9, §10, §11

[13] = test system: Hibiscus trionum; assay: as above; details: HIBTR
Experimental: as §8, §9, §10, §11

[14] = test system: Matricaria chamomilla; assay: as above; details: MATCH
Experimental: as §8, §9, §10, §11

[15] = test system: Mercuralis annua; assay: as above; details: MERAN
Experimental: as §8, §9, §10, §11

[16] = test system: Papaver rhoeas; assay: as above; details: PAPRH
Experimental: as §8, §9, §10, §11

[17] = test system: Polygonum aviculare; assay: as above; details: POLAV
Experimental: as §8, §9, §10, §11

[18] = test system: Setaria viridis; assay: as above; details: SETVI
Experimental: as §8, §9, §10, §11

[19] = test system: Sonchus arvensis; assay: as above; details: SONAR
Experimental: as §8, §9, §10, §11

[20] = test system: Sorghum halepense; assay: as above; details: SORHA
Experimental: as §8, §9, §10, §11

[21] = Preem, Saflufenacil 25, Flumioxazin 71.4 g ai/ha
[22] = Preem, Saflufenacil 50, Flumioxazin 71.4 g ai/ha
[23] = BBCH 12-14, Flumioxazin 2, Fomesafen 123 g ai/ha
[24] = BBCH 12-14, Flumioxazin 0.5, Halauxifen 1 g ai/ha
[25] = BBCH 12-14, Saflufenacil 1, Flumioxazin 2 g ai/ha
[26] = BBCH 12-14, Flumioxazin 0.5, Imazamox 10 g ai/ha
[27] = BBCH 12-14, Saflufenacil 0.5, Flumioxazin 2 g ai/ha
[28] = BBCH 12-14, Flumioxazin 2, Halauxifen 1 g ai/ha
[29] = BBCH 12-14, Flumioxazin 0.5, Bifenox 168 g ai/ha
[30] = BBCH 12-14, Flumioxazin 2, Tribenuron-methyl 6 g ai/ha
[31] = BBCH 12-14, Flumioxazin 0.5, Pyraflufen-ethyl 1.5 g ai/ha
[32] = BBCH 12-14, Saflufenacil 4, Flumioxazin 2 g ai/ha
[33] = preemergence, Saflufenacil 25, Sulfentrazone 210 g ai/ha
[34] = BBCH 12-14, Saflufenacil 1, Bifenox 168 g ai/ha
[35] = BBCH 12-14, Saflufenacil 1, Imazamox 10 g ai/ha
[36] = BBCH 12-14, Saflufenacil 0.5, Clethodim 30 g ai/ha
[37] = BBCH 12-14, Saflufenacil 0.5, Bifenox 168 g ai/ha

## C#CCN1C(=O)COc2cc(F)c(N3C(=O)C4=C(CCCC4)C3=O)cc21 [Flumioxazin, 2-[7-fluoro-3,4-dihydro-3-oxo-4-(2-propyn-1-yl)-2H-1,4-benzoxazin-6-yl]-4,5,6,7-tetrahydro-1H-isoindole-1,3 (2H)-dione]
[1]
  % Herbicidal activity: 85%
[2]
  % Herbicidal activity: 65%
[3]
  % Herbicidal activity: 88%
[4]
  % Herbicidal activity: 72%
[5]; [21]
  % Herbicidal activity: 80%
[6]; [22]
  % Herbicidal activity: 35%
[7]; BBCH 12-14, Flumioxazin 1, Imazamox 10 g ai/ha
  % Herbicidal activity: 90%
[7]; BBCH 12-14, Flumioxazin 2, Bifenox 168 g ai/ha
  % Herbicidal activity: 98%
[8]; BBCH 12-14, Flumioxazin 4, Imazamox 10 g ai/ha
  % Herbicidal activity: 95%
[9]; BBCH 12-14, Flumioxazin 1, Bifenox 168 g ai/ha
  % Herbicidal activity: 70%
[9]; [23]
  % Herbicidal activity: 70%
[10]; BBCH 12-14, Flumioxazin 0.5, Fomesafen 123 g ai/ha
  % Herbicidal activity: 65%
[10]; [24]
  % Herbicidal activity: 65%
[10]; BBCH12-14, Flumioxazin 0.5, Pyraflufen-ethyl 1.5 g ai/ha
  % Herbicidal activity: 65%
[11]; [23]
  % Herbicidal activity: 55%
[12]; BBCH 12-14, Flumioxazin 1, Pyraflufen-ethyl 1.5 g ai/ha
  % Herbicidal activity: 60%
[12]; [25]
  % Herbicidal activity: 75%
[13]; [26]
  % Herbicidal activity: 75%
[13]; [27]
  % Herbicidal activity: 90%
[14]; BBCH 12-14, Flumioxazin 1, Fomesafen 123 g ai/ha
  % Herbicidal activity: 60%
[14]; [28]
  % Herbicidal activity: 65%
[14]; [25]
  % Herbicidal activity: 75%
[15]; [26]
  % Herbicidal activity: 70%
[16]; [29]
  % Herbicidal activity: 85%
[16]; [24]
  % Herbicidal activity: 85%
[16]; [30]
  % Herbicidal activity: 85%
[17]; [31]
  % Herbicidal activity: 45%
[17]; BBCH 12-14, Flumioxazin 4, Bifenox 168 g ai/ha
  % Herbicidal activity: 95%
[17]; [25]
  % Herbicidal activity: 80%
[18]; [24]
  % Herbicidal activity: 30%
[18]; [30]
  % Herbicidal activity: 70%
[18]; [25]
  % Herbicidal activity: 65%
[19]; [29]
  % Herbicidal activity: 50%
[19]; [31]
  % Herbicidal activity: 50%
[19]; [28]
  % Herbicidal activity: 50%
[20]; [32]
  % Herbicidal activity: 50%

## CC(C)N(C)S(=O)(=O)NC(=O)c1cc(-n2c(=O)cc(C(F)(F)F)n(C)c2=O)c(F)cc1Cl [Saflufenacil, 2-chloro-5-[3,6-dihydro-3-methyl-2,6-dioxo-4-(trifluoromethyl)-1-(2H)pyrimidinyl]-4-fluoro-N-[[methyl (1-methylethyl)amino]-sulfonyl]benzamide]
[1]
  % Herbicidal activity: 27%
[2]
  % Herbicidal activity: 67%
[3]
  % Herbicidal activity: 7%
[4]
  % Herbicidal activity: 37%
[5]; [21]
  % Herbicidal activity: 3%
[5]; [33]
  % Herbicidal activity: 8%
[6]; [22]
  % Herbicidal activity: 13%
[6]; [33]
  % Herbicidal activity: 20%
[7]; [34]
  % Herbicidal activity: 90%
[7]; BBCH 12-14, Saflufenacil 2, Fomesafen 1 g ai/ha
  % Herbicidal activity: 70%
[8]; [34]
  % Herbicidal activity: 80%
[8]; BBCH 12-14, Saflufenacil 1, Clethodim 30 g ai/ha
  % Herbicidal activity: 80%
[8]; [35]
  % Herbicidal activity: 80%
[8]; BBCH 12-14, Saflufenacil 1, Tribenuron-methyl 6 g ai/ha
  % Herbicidal activity: 80%
[9]; BBCH 12-14, Saflufenacil 4, Clethodim 30 g ai/ha
  % Herbicidal activity: 95%
[10]; [36]
  % Herbicidal activity: 30%
[10]; BBCH 12-14, Saflufenacil 0.5, Halauxifen 1 g ai/ha
  % Herbicidal activity: 30%
[10]; [34]
  % Herbicidal activity: 80%
[11]; BBCH 12-14, Saflufenacil 4, Fomesafen 123 g ai/ha
  % Herbicidal activity: 85%
[12]; [25]
  % Herbicidal activity: 90%
[13]; [36]
  % Herbicidal activity: 80%
[13]; [27]
  % Herbicidal activity: 80%
[14]; [36]
  % Herbicidal activity: 45%
[14]; [25]
  % Herbicidal activity: 45%
[14]; [35]
  % Herbicidal activity: 45%
[14]; BBCH 12-14, Saflufenacil 2, Halauxifen 1 g ai/ha
  % Herbicidal activity: 98%
[15]; [37]
  % Herbicidal activity: 60%
[16]; [37]
  % Herbicidal activity: 95%
[17]; [36]
  % Herbicidal activity: 75%
[17]; [25]
  % Herbicidal activity: 3%
[18]; BBCH 12-14, Saflufenacil 0.5, Imazamox 10 g ai/ha
  % Herbicidal activity: 25%
[18]; [25]
  % Herbicidal activity: 70%
[19]; [36]
  % Herbicidal activity: 98%
[20]; BBCH 12-14, Saflufenacil 4, Bifenox 168 g ai/ha
  % Herbicidal activity: 60%
[20]; [32]
  % Herbicidal activity: 60%
